Structures are written as SMILES. Peptide text beside a SMILES is read from it.

Assay [1] addresses T1, Serine/threonine-protein kinase B-raf (Homo sapiens, UniProt P15056). The experiment in a line: Inhibition of BRAF in NRAS Q61K mutant-driven human SBcl2 cells assessed as suppression of vemurafenib-induced phosphorylation of MEK expression administered via electroporation for 30 mins followed by vemurafenib addition and measured after 1 hr by Western blot analysis.
In assay [2] the target is T1, Serine/threonine-protein kinase B-raf. The experiment in a line: Inhibition of BRAF in NRAS Q61K mutant-driven human SBcl2 cells assessed as suppression of vemurafenib-induced phosphorylation of ERK expression administered via electroporation for 30 mins followed by vemurafenib addition and measured after 1 hr by Western blot analysis.
The target is the same in assay [3]. The assay is described as follows: Inhibition of BRAF in NRAS Q61K mutant-driven human SBcl2 cells assessed as suppression of vemurafenib-induced phosphorylation of MEK expression at 300 uM administered via electroporation for 30 mins followed by vemurafenib addition and measured after 1 hr by Western blot analysis.
Assay [4] relates to MCF-10A. The assay is described as follows: Antiproliferative activity against EGF-dependent human MCF10A cells assessed as inhibition of colony growth at 2 uM supplemented with fresh medium containing compound every 2 days for 11 days. Type of assay: functional.
Assay [5] concerns the target T1, Serine/threonine-protein kinase B-raf. The experiment in a line: Inhibition of BRAF in NRAS Q61K mutant-driven human SBcl2 cells assessed as suppression of vemurafenib-induced phosphorylation of ERK expression at 300 uM administered via electroporation for 30 mins followed by vemurafenib addition and measured after 1 hr by Western blot analysis.
Assay [6] shares this target. The experiment in a line: Binding affinity to BRAF (unknown origin) by intrinsic tryptophan fluorescence assay.
Assay [7] deals with MCF-10A. The assay is described as follows: Antiproliferative activity against EGF-dependent human MCF10A cells assessed as inhibition of colony growth at 1.5 uM supplemented with fresh medium containing compound every 2 days for 11 days. The format is functional.

T1 sequence (P15056 whole entry): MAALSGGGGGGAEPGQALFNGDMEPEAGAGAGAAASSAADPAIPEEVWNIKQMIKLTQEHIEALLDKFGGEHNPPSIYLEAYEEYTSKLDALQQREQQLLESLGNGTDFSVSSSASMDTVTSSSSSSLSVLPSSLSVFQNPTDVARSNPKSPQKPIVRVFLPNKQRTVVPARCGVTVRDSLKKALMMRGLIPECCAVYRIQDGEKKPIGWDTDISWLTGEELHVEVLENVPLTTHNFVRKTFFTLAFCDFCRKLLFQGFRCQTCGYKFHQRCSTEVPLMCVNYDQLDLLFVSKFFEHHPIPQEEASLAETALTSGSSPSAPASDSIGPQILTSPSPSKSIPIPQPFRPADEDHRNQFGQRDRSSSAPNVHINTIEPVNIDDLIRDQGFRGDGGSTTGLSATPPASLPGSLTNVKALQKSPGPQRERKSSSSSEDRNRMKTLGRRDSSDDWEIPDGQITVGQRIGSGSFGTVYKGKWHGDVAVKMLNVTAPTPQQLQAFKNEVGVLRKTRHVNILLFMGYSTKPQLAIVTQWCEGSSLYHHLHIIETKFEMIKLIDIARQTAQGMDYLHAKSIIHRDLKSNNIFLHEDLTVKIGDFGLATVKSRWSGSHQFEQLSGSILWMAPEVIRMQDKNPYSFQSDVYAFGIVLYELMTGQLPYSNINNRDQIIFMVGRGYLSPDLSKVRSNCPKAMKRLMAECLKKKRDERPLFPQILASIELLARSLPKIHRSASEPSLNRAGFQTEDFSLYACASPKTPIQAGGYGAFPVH

Consider `CC[C@H](C)[C@H](NC(=O)[C@H](CC(N)=O)NC(=O)[C@@H](NC(=O)[C@H](Cc1cnc[nH]1)NC(=O)[C@H](CCCNC(=N)N)NC(=O)[C@@H](NC(=O)[C@H](CCCCN)NC(=O)[C@H](CCCNC(=N)N)NC(=O)[C@H](CC(C)C)NC(=O)[C@@H](NC(=O)CN)C(C)C)[C@@H](C)O)C(C)C)C(=O)N[C@@H](CC(C)C)C(=O)N[C@@H](CC(C)C)C(=O)N[C@@H](Cc1ccccc1)C(=O)N[C@@H](CCSC)C(=O)NCC(=O)N[C@@H](Cc1ccc(O)cc1)C(=O)N[C@@H](CO)C(=O)N[C@H](C(=O)O)[C@@H](C)O`, for which the inhibition result in assay [1] was “Dose-dependent effect”; in assay [2] it was “Dose-dependent effect”; in assay [3] it was 100%; in assay [5], 100%. In the assay with MCF-10A [4], the “inhibition (INH)” value is given as 100%.

Consider `CC[C@H](C)[C@H](NC(=O)[C@H](CC(N)=O)NC(=O)[C@@H](NC(=O)[C@H](Cc1cnc[nH]1)NC(=O)[C@H](CCCNC(=N)N)NC(=O)[C@@H](NC(=O)[C@H](CCCCN)NC(=O)[C@H](CC(C)C)NC(=O)[C@H](CC(C)C)NC(=O)[C@@H](NC(=O)CN)C(C)C)[C@@H](C)O)C(C)C)C(=O)N[C@@H](CC(C)C)C(=O)N[C@@H](CC(C)C)C(=O)N[C@@H](Cc1ccccc1)C(=O)N[C@@H](CCSC)C(=O)NCC(=O)N[C@@H](Cc1ccc(O)cc1)C(=O)N[C@@H](CO)C(=O)N[C@H](C(=O)O)[C@@H](C)O`, for which, in assay [6] (read-out: Kd), the equilibrium dissociation constant (Kd) was 540 nM.

As to `CC[C@H](C)[C@H](NC(=O)[C@H](CC(N)=O)NC(=O)[C@@H](NC(=O)[C@H](Cc1cnc[nH]1)NC(=O)[C@H](CCCNC(=N)N)NC(=O)[C@@H](NC(=O)[C@H](CCCCN)NC(=O)[C@H](CCCNC(=N)N)NC(=O)[C@H](CC(C)C)NC(=O)[C@@H](N)C(C)C)[C@@H](C)O)C(C)C)C(=O)N[C@@H](CC(C)C)C(=O)N[C@@H](CC(C)C)C(=O)N[C@@H](Cc1ccccc1)C(=O)N[C@@H](CCSC)C(=O)NCC(=O)O`, in the assay on MCF-10A [7], the “inhibition (INH)” value stood at 100%.

In the case of `CC[C@H](C)[C@H](NC(=O)[C@H](CC(N)=O)NC(=O)[C@@H](NC(=O)[C@H](Cc1cnc[nH]1)NC(=O)[C@H](Cc1cnc[nH]1)NC(=O)[C@@H](NC(=O)[C@H](CCCCN)NC(=O)[C@H](CCCNC(=N)N)NC(=O)[C@H](CC(C)C)NC(=O)[C@@H](NC(=O)CN)C(C)C)[C@@H](C)O)C(C)C)C(=O)N[C@@H](CC(C)C)C(=O)NCC(=O)N[C@@H](Cc1ccccc1)C(=O)N[C@@H](Cc1c[nH]c2ccccc12)C(=O)NCC(=O)N[C@@H](Cc1ccc(O)cc1)C(=O)N[C@@H](CO)C(=O)N[C@H](C(=O)O)[C@@H](C)O` (H-GVLRKTHHVNILGFWGYST-OH), the Kd result in assay [6] is reported as “Not Active”.

As for `CC[C@H](C)[C@H](NC(=O)[C@H](CC(N)=O)NC(=O)[C@@H](NC(=O)[C@H](Cc1cnc[nH]1)NC(=O)[C@H](CCCNC(=N)N)NC(=O)[C@@H](NC(=O)[C@H](CCCCN)NC(=O)[C@H](CCCNC(=N)N)NC(=O)[C@H](CC(C)C)NC(=O)[C@@H](NC(=O)CN)C(C)C)[C@@H](C)O)C(C)C)C(=O)N[C@@H](C)C(=O)N[C@@H](CC(C)C)C(=O)N[C@@H](Cc1ccccc1)C(=O)N[C@@H](CCSC)C(=O)NCC(=O)N[C@@H](Cc1ccc(O)cc1)C(=O)N[C@@H](CO)C(=O)N[C@H](C(=O)O)[C@@H](C)O`, the dissociation constant Kd in assay [6] (read-out: Kd) amounted to 9800 nM.

As to `CC[C@H](C)[C@H](NC(=O)[C@H](CC(N)=O)NC(=O)[C@@H](NC(=O)[C@H](Cc1cnc[nH]1)NC(=O)[C@H](CCCNC(=N)N)NC(=O)[C@H](CC(=O)O)NC(=O)[C@H](CCCCN)NC(=O)[C@H](CCCNC(=N)N)NC(=O)[C@H](CC(C)C)NC(=O)[C@@H](NC(=O)CN)C(C)C)C(C)C)C(=O)N[C@@H](CC(C)C)C(=O)N[C@@H](CC(C)C)C(=O)N[C@@H](Cc1ccccc1)C(=O)N[C@@H](CCSC)C(=O)NCC(=O)N[C@@H](Cc1ccc(O)cc1)C(=O)N[C@@H](CO)C(=O)N[C@H](C(=O)O)[C@@H](C)O`, in assay [6] (read-out: Kd), the Kd was 2200 nM.

On to `CC[C@H](C)[C@H](NC(=O)[C@H](CC(N)=O)NC(=O)[C@@H](NC(=O)[C@H](Cc1cnc[nH]1)NC(=O)[C@H](CCCNC(=N)N)NC(=O)[C@@H](NC(=O)[C@H](CCCCN)NC(=O)[C@H](CCCNC(=N)N)NC(=O)[C@H](CC(C)C)NC(=O)[C@@H](NC(=O)CN)C(C)C)[C@@H](C)O)C(C)C)C(=O)N[C@@H](CC(C)C)C(=O)N[C@@H](CC(C)C)C(=O)N[C@@H](CC(=O)O)C(=O)N[C@@H](CCSC)C(=O)NCC(=O)N[C@@H](Cc1ccc(O)cc1)C(=O)N[C@@H](CO)C(=O)N[C@H](C(=O)O)[C@@H](C)O`, for which the Kd result in assay [6] is “Not Active”.

Turning to `CSCC[C@@H]1NC(=O)[C@H](Cc2ccccc2)NC(=O)[C@H](CC(C)C)NC(=O)[C@H](CC(C)C)NC(=O)[C@H](CCC(=O)O)NC(=O)[C@H](CC(N)=O)NC(=O)[C@H](C(C)C)NC(=O)[C@H](Cc2cnc[nH]2)NC(=O)[C@H](CCCNC(=N)N)NC(=O)[C@H](CCCCN)NC(=O)[C@H](CCCCN)NC(=O)[C@H](CCCNC(=N)N)NC(=O)[C@H](CC(C)C)NC(=O)CNC1=O`, the Kd in assay [6] (read-out: Kd) worked out at 1890 nM.

Take `CC[C@H](C)[C@H](NC(=O)[C@H](CC(C)C)NC(=O)[C@@H](NC(=O)[C@H](CC(N)=O)NC(=O)[C@@H](NC(=O)[C@H](Cc1cnc[nH]1)NC(=O)[C@H](CCCNC(=N)N)NC(=O)[C@@H](NC(=O)[C@H](CCCCN)NC(=O)[C@H](CCCNC(=N)N)NC(=O)[C@H](CC(C)C)NC(=O)[C@@H](NC(=O)CN)C(C)C)[C@@H](C)O)C(C)C)[C@@H](C)CC)C(=O)N[C@@H](Cc1ccccc1)C(=O)N[C@@H](CCSC)C(=O)NCC(=O)N[C@@H](Cc1ccc(O)cc1)C(=O)N[C@@H](CO)C(=O)N[C@H](C(=O)O)[C@@H](C)O`: the Kd in assay [6] (read-out: Kd) worked out at 4100 nM.

Take `CC[C@H](C)[C@H](NC(=O)[C@H](C)NC(=O)[C@@H](NC(=O)[C@H](Cc1cnc[nH]1)NC(=O)[C@H](CCCNC(=N)N)NC(=O)[C@@H](NC(=O)[C@H](CCCCN)NC(=O)[C@H](CCCNC(=N)N)NC(=O)[C@H](CC(C)C)NC(=O)[C@@H](N)C(C)C)[C@@H](C)O)C(C)C)C(=O)N[C@@H](CC(C)C)C(=O)N[C@@H](CC(C)C)C(=O)N[C@@H](Cc1ccccc1)C(=O)N[C@@H](CCSC)C(=O)NCC(=O)O` (H-VLRKTRHVAILLFMG-OH): the Kd entry in assay [6] is reported as “Not Active”.

Take `CC[C@H](C)[C@H](NC(=O)[C@H](CC(N)=O)NC(=O)[C@@H](NC(=O)[C@H](Cc1ccccc1)NC(=O)[C@H](CCCNC(=N)N)NC(=O)[C@@H](NC(=O)[C@H](CCCCN)NC(=O)[C@H](CCCNC(=N)N)NC(=O)[C@H](CC(C)C)NC(=O)[C@@H](NC(=O)CN)C(C)C)[C@@H](C)O)C(C)C)C(=O)N[C@@H](CC(C)C)C(=O)N[C@@H](CC(C)C)C(=O)N[C@@H](Cc1ccccc1)C(=O)N[C@@H](CCSC)C(=O)NCC(=O)N[C@@H](Cc1ccc(O)cc1)C(=O)N[C@@H](CO)C(=O)N[C@H](C(=O)O)[C@@H](C)O`: the Kd entry in assay [6] is listed as “Not Active”.

For `CC[C@H](C)[C@H](NC(=O)[C@H](CC(N)=O)NC(=O)[C@H](C)NC(=O)[C@H](Cc1cnc[nH]1)NC(=O)[C@H](CCCNC(=N)N)NC(=O)[C@@H](NC(=O)[C@H](CCCCN)NC(=O)[C@H](CCCNC(=N)N)NC(=O)[C@H](CC(C)C)NC(=O)[C@@H](NC(=O)CN)C(C)C)[C@@H](C)O)C(=O)N[C@@H](CC(C)C)C(=O)N[C@@H](CC(C)C)C(=O)N[C@@H](Cc1ccccc1)C(=O)N[C@@H](CCSC)C(=O)NCC(=O)N[C@@H](Cc1ccc(O)cc1)C(=O)N[C@@H](CO)C(=O)N[C@H](C(=O)O)[C@@H](C)O`, the Kd in assay [6] (read-out: Kd) turned out to be 4750 nM.

As for `CC[C@H](C)[C@H](NC(=O)[C@H](CC(N)=O)NC(=O)[C@@H](NC(=O)[C@H](Cc1cnc[nH]1)NC(=O)[C@H](CCCNC(=N)N)NC(=O)[C@@H](NC(=O)[C@H](CCCCN)NC(=O)[C@H](CCC(=O)O)NC(=O)[C@H](CC(C)C)NC(=O)[C@@H](NC(=O)CN)C(C)C)[C@@H](C)O)C(C)C)C(=O)N[C@@H](CC(C)C)C(=O)N[C@@H](CC(C)C)C(=O)N[C@@H](Cc1ccccc1)C(=O)N[C@@H](CCSC)C(=O)NCC(=O)N[C@@H](Cc1ccc(O)cc1)C(=O)N[C@@H](CO)C(=O)N[C@H](C(=O)O)[C@@H](C)O`, the Kd in assay [6] (read-out: Kd) was 1090 nM.

Turning to `CC[C@H](C)[C@H](NC(=O)[C@H](CC(N)=O)NC(=O)[C@@H](NC(=O)[C@H](Cc1cnc[nH]1)NC(=O)[C@H](CCCNC(=N)N)NC(=O)[C@@H](NC(=O)[C@H](CCCCN)NC(=O)[C@H](CCCNC(=N)N)NC(=O)[C@H](CC(C)C)NC(=O)[C@@H](NC(=O)CN)C(C)C)[C@@H](C)O)C(C)C)C(=O)N[C@@H](CC(C)C)C(=O)N[C@@H](CC(C)C)C(=O)N[C@@H](Cc1ccccc1)C(=O)N[C@@H](CCSC)C(=O)NCC(=O)O` (H-GVLRKTRHVNILLFMG-OH), the Kd in assay [6] (read-out: Kd) was found to be 1880 nM.
